row,SMILES,melting point [°C]
1,Cc1ccc(C(=O)c2ccc(Cl)cc2)c(Cl)c1,58 to 60.5
2,Clc1cc2nc3cc4ccccc4[nH]c-3c2cc1Br,> 246
3,N=C(NCc1c[nH]c2ccccc12)C(Cl)(Cl)Cl,136 to 138
4,Nc1cc(SC(F)(F)F)cc(Br)c1N,60 to 61
5,Cc1ccc(C(=O)Nc2ccccc2O)c(F)c1,195 to 197
6,CC(=O)Nc1ccc(-c2ccc3c(c2)CC(C(=O)O)O3)cc1 (configuration not stated),274 to 276
7,Oc1cccc2c1CCC=C2,67 to 68
8,C[C@@H]1Cc2ccsc2[C@H](C)N1CCNC(=O)c1ccc(F)cc1 (relative stereo),110 to 114
9,CC(C#Cc1cccc(Oc2ccc(F)cc2)c1)N(O)C(N)=O (configuration not stated),137 to 138
10,Cc1c(C(=O)O)ccc2c1C(Cl)C(Cl)CS2(=O)=O (configuration not stated),236 to 244
11,Oc1c(I)cccc1-c1c(Cl)cccc1Cl,51 to 53
12,Cn1cc2c(C(F)(F)F)cc(Cl)nc2n1,124
13,Cc1nc(C(=O)NCCO[N+](=O)[O-])c(C)s1,114 to 116
14,O=C(Cc1ccc(-n2ccnc2)cc1)NOc1ccccn1,110
15,COc1ccc(F)c(OC)c1-c1ccc(C[C@H](NC(=O)c2c(Cl)cccc2Cl)C(=O)O)cc1,228 to 229
16,CC(=O)NC(C)(C(=O)O)C(C)C (configuration not stated),189 to 190
17,CC(=O)n1cc(-c2cccc(Cl)c2Cl)c(C(F)(F)F)c1,65 to 66
18,C=C(C(=O)OC)[C@@H](O)c1ccccc1,48
19,O=C1CC(c2ccccc2)c2cc(C(=O)c3ccc(Cl)cc3)ccc2N1 (configuration not stated),204
20,OCCCc1nc(-c2ccc(Cl)cc2)co1,41 to 42
21,Cc1ccc2nc(-c3ccc(-c4ccccc4)cc3)c(O)c(C(=O)O)c2c1,236 to 238
22,COc1ccc(CCNCC(O)c2ccccc2)cc1Cl (configuration not stated),95 to 96
23,O=C(O)c1ccc(-c2nc(-c3ccc(Cl)cc3)cs2)cc1,284 to 285
24,CC(=O)NNc1ccc(Cl)c(Cl)c1,179 to 182
25,CN(Cc1ccc(F)cc1)C(=O)c1cnc2c([N+](=O)[O-])cccc2c1Cl,135 to 137

row,SMILES,melting point [°C]
1,Cc1cc(F)ccc1-n1c(CF)nc2ccc([N+](=O)[O-])cc2c1=O,171 to 173
2,CCSC1=NCC(O)CN1 (configuration not stated),106 to 108
3,CCN(CC)CCCN1CCN(CCN2CCCCC2)C1=C(C#N)C#N,58 to 61
4,COc1cc2c(Cl)c(C#N)cnc2cc1N1CCN(C)CC1,177 to 179
5,CCCCCCC/C=C/C(=O)NCCC(C)C,28 to 31
6,CCC[C@@H](C)C(C(=O)O)C(=O)O,95
7,CCCCCCCCCC1SC(c2cccnc2)NC1=O (configuration not stated),90 to 95
8,O=C1c2ccc(C(F)(F)F)cc2CCC1CN1CCC2(CC1)C(=O)NCN2c1ccccc1 (configuration not stated),159 to 162
9,CCCC1=NN(c2cccnc2)C(=O)C1=CNc1ccccc1CC,144
10,CC(C)C(=O)N[C@@H](CSC(=O)c1ccccc1)C(=O)NCCSC(=O)C(C)C,155 to 157
11,CC(=O)C(O)C1OC(S(=O)(=O)c2ncc(Cl)cn2)C(O)(C(C)=O)C(O)(C(C)=O)C1(O)C(C)=O (configuration not stated),180
12,C=CCC(CC=C)(CC=C)c1ccc(-c2nc3cc(C#N)c(C#N)cc3n2CCC)cc1,132 to 134
13,Cc1nn(C)c(F)c1C(=O)Nc1ccccc1C(C)CC(C)(C)C (configuration not stated),78 to 80
14,CN1C(=O)C[C@@H](c2ccccc2)[C@H]1C(=O)c1ccccc1,115 to 116
15,CCOC(=O)c1csc([N+](=O)[O-])c1Br,94 to 95
16,Clc1ncccc1-c1ccccn1,50
17,O=C(O)C=C1SC(=NCCc2ccccc2)N(CCc2ccccc2)C1=O,148 to 149
18,COc1cc(Nc2c(C#N)cnc3sc(CCCCO)cc23)cc(OC)c1OC,125 to 127
19,O=C(O)c1cc(Br)cc2c1NCCS2=O (configuration not stated),254 to 255
20,CC1Cc2ccc(Cl)cc2C(c2ccc([N+](=O)[O-])cc2)=NN1C(N)=O (configuration not stated),223 to 234
21,CC(=NOCCO)c1ccc(-c2ccc(F)cc2)cc1,133 to 134
22,CC(C)(O)c1ccc(CC(=O)Nc2cccnc2Oc2cccnc2)cc1,122 to 124
23,Cn1nc(C(=O)NCc2ccc(Cl)cc2)c(=O)c2cc(C#CCO)ccc21,229 to 231
24,Cc1oc(-c2ccco2)nc1COc1ccc(COc2nn(-c3ccccc3)cc2/C=C/C(=O)O)cc1,144 to 145
25,COc1ccc([C@@H]2O[C@@](O[Si](C)(C)C)(C(F)(F)F)[C@H](Cc3ccccc3)N2C(=O)OCc2ccccc2)cc1,41 to 42

# Next, values leading:
row,melting point [°C],SMILES
1,50 to 51,COC(=O)COc1ccc(NC(=O)c2cc(F)cc(N3CCC(C)CC3)c2)c2ccccc12
2,126 to 128,CCCn1c(=O)c2c(N)n(CCCl)nc2n(Cc2ccccc2)c1=O
3,189,CCOC(=O)c1cn(NC)c2c(F)c(F)c(F)cc2c1=O
4,148 to 150,CC12CCC(=O)C=C1CCC1C2=CCC2(C)C(C#N)=CCC12 (configuration not stated)
5,90 to 92,COc1c(Nc2ncc(Cl)c(Nc3ccccc3S(=O)(=O)N3CCC(O)C3)n2)ccc2c1CCCC(NCCO)C2 (configuration not stated)
6,128 to 129,CCOC(=O)c1cn(C2CC2)c2c(C)c(N3CCN(Cc4ccccc4)C(C)C3)c(F)c(C)c2c1=O (configuration not stated)
7,186 to 187,COc1ccc2c(c1)C(=NN)Cc1c(C#N)cccc1S2
8,153 to 155,O=C1NCc2ccccc2N1C1CCNCC1
9,165 to 166,COc1ccc(C(C)(C)C)cc1NC(=O)Nc1ccc(C)cc1N
10,188 to 189,CC(C)(C)OC(=O)N1CCN(c2cccc3c2c(Br)cn3S(=O)(=O)c2ccccc2)CC1
11,299 to 301,CCCn1c(=O)n2c(=O)[nH]nc2c2c1ncn2C
12,230 to 231,COc1cc(C=CC=C2SC(=O)NC2=O)ccc1OC(C)C
13,67 to 74,COc1cc(C2CCN(C[C@@H](C)O)CC2)ccc1Nc1ncc2ccc(-c3ccccc3OC)n2n1
14,235,CC(C)(C)c1cc(/C=C/c2nnc(S(C)(=O)=O)s2)cc(C(C)(C)C)c1O
15,170 to 172,COc1nc(-c2ccccc2)c(-c2ccc(=O)n(C(C)C)n2)nc1C#N
16,180 to 182,CCOC=Nc1ccc2nnc(-c3ccc([N+](=O)[O-])s3)n2n1
17,150 to 155,Nc1cnc(NCCSCc2csc(CN3CCCCC3)c2)[nH]c1=O
18,158 to 160,COc1c(N2CCC(NC(=O)OCc3ccccc3)C(C)(C)C2)c(F)cc2c(=O)c(C(=O)O)cn(C3CC3)c12 (configuration not stated)
19,106 to 108,COc1ncc(C(F)(F)F)cc1-c1cccn2nc(Nc3ccc(C4CCNCC4)cc3)nc12
20,135 to 136,O=Cc1cc2n(n1)CCOC2=O
21,148 to 149,COc1ccc(CCNC(=O)C(=O)NCc2cccnc2)cc1OC1CCCC1
22,100 to 101,O=C1CCC(c2ccc(-c3ccc(Cl)cc3)o2)O1 (configuration not stated)
23,196,O=C1C(=O)N2CCSc3cc(Br)cc1c32
24,100,Nc1nc(N)n(CCCOc2cccc(CN3CCCCC3)c2)n1
25,135,Nc1ccc(Cl)c2c(Cl)ccnc12
26,66 to 68,NC(=O)[C@@H](CCC(F)(F)F)N(Cc1ccc(-c2ncon2)cc1F)S(=O)(=O)c1ccc(Cl)cc1

row,melting point [°C],SMILES
1,216,CN1C(=O)N(c2cc(Cl)cc(Cl)c2)C(=O)[C@]12CN(C1CC1)C[C@H]2c1ccc(C#N)cc1 (relative stereo)
2,189 to 194,COC(=O)c1cccc(NC(=O)NCC(=O)N(CC(=O)N2CCCC2)c2ccccc2C(=O)c2ccccc2)c1
3,156 to 157,COc1cc(-n2nc(C(F)(F)F)cc2-c2ccc(S(C)(=O)=O)cc2)ccc1Br
4,158 to 162,COc1cc(OC)c(-c2cc3ccccc3[nH]2)cc1C=CC(=O)c1ccc(S(=O)(=O)N(C)C)cc1
5,250 to 257,Cc1cc(C#N)c(=O)[nH]c1-c1ccccc1
6,186 to 188,O=C1c2ccccc2-c2c1c(N1CCN(c3ccccn3)CC1)nc1ccc(Br)cc21
7,57 to 59,Cc1ccc(S(=O)(=O)OCCC2CCc3ccccc3O2)cc1 (configuration not stated)
8,161 to 164,COC[C@@H]1CCCN1S(=O)(=O)c1ccc2c(c1)C(=O)C1=NCC(C)(C)CN12
9,62.7,COc1ccc(C=C2c3ccccc3CCc3ccccc32)cc1N
10,74 to 75,CCCCCCCCCCCCCCCCN(C)S(=O)(=O)c1ccc(Cl)c([N+](=O)[O-])c1
11,106,CCOC(=O)C(C(=O)N(C)C)=C(OC(=O)c1ccccc1)c1ccc(Cl)cc1Cl
12,176 to 178,Cc1ccccc1N1CCN(S(=O)(=O)c2ccc([N+](=O)[O-])cc2)CC1
13,256 to 258,COc1cc2c(OC)c3c(c(-c4ccc5c(c4)OCO5)c2cc1OC)C(=O)OC3
14,187 to 189,COc1ccc2cc(-c3cnc(-c4cn(C)c5ccccc45)o3)ccc2c1
15,191 to 193,O=[N+]([O-])c1cn2c(n1)OC[C@@H](OCc1ccc(Cl)nc1)C2
16,300,CC1=CC2=C(N3CN(O)C=C3N=N2)N(c2ccccc2Cl)C1
17,57 to 59,CSCCSC1=C(O)CC(C)(C)CC1=O
18,192,CC1=C(C#N)C(c2cncc3ncc(-c4ccccc4)cc23)C(C(=O)OC(C)C)=C(C)N1 (configuration not stated)
19,255 to 259,CN1N=C(c2ccc3c(c2)CCC(=O)N3)C2CC2C1=O (configuration not stated)
20,32 to 34,COC(=O)Cc1ccc(O)c(F)c1
21,189 to 192,COc1cc(OC)nc(NC(=O)NS(=O)(=O)c2c(C(=O)C3CC3)cnn2C)n1
22,157 to 160,CCN(c1nc(C)cc(C)n1)c1c(O)cc(OC)cc1Br
23,128 to 130,CCCCNC(=O)NS(=O)(=O)c1cc(C(F)(F)F)ccc1S(=O)(=O)N(C)C
24,76 to 77,CC(C)(C)OC(=O)[C@H](CC1CC1)N1C(=O)NC(C(F)(F)F)(C(F)(F)F)C1=O
25,123 to 134,CC(C)(C)OC(=O)N1CCC(CS(=O)Cc2cc(C(F)(F)F)cc(C(F)(F)F)c2)(c2ccccc2)CC1 (configuration not stated)
26,225 to 227,CNC(=O)c1sc(N2CCN(Cc3ccc(F)cc3)C2=O)nc1C

# Source: a melting point compilation (Tetko et al.; mined from patent text by program, amines drawn as free bases though some values may be those of a salt)
